The values that follow come from patent US10316021B2, “Heteroarylphenoxy benzamide kappa opioid ligands” (Pfizer Inc., priority 2016, dated 2019).

“Also recorded” adds a separate entry of the source. Like-named read-outs stand apart in the source and are kept apart here.

The target in experiment [1] is T1, human kappa opioid receptor (hKOR) (Homo sapiens, UniProt P41145).
T1 construct: expressed in transfected cells; host or cells: CHO cells
Briefly: Kappa radioligand binding assay ([3H]diprenorphine, CHO cell membranes). The following applies: for Selectivity hMOR/hKOR: selectivity ratio calculated by dividing the hMOR Ki by the hKOR Ki. On the procedure: (§1) Kappa and Mu Radioligand Binding Assay:
(§2) Binding assays on membranes from CHO cells expressing human kappa or mu opioid receptors were performed according to standard procedures. Frozen cell paste was homogenized in 50 mM Tris HCl buffer (pH 7.4 @ 4 degrees C.) containing 2.0 mM MgCl2 using a Polytron and spun in a centrifuge at 40,000 g for ten minutes. The final pellet was resuspended in assay buffer (50 mM Tris HCl buffer, pH 7.4, containing 1 mM EDTA, 5 mM MgCl2). Incubations were initiated by the addition of membranes to 96-well plates containing test drugs and [^3H]diprenorphine (0.6 nM final concentration for kappa opioid receptor and 0.5 nM final concentration for mu) in a final volume of 250 μl. Non-specific binding was determined by radioligand binding in the presence of a saturating concentration of naltrexone (10 μM). After a one hour incubation period at room temperature, assay samples were rapidly filtered through PEI coated, GF/B fired Unifilter plates (PerkinElmer) and rinsed with ice-cold 50 mM Tris buffer (pH 7.4). Membrane bound [^3H]diprenorphine levels were determined by liquid scintillation counting of the filterplates in Ecolume scintillation fluid. The IC50 value (concentration at which 50% inhibition of specific binding occurs) was calculated using a logistic 4 parameter fit model of the concentration-response data. Ki values were calculated according to the Cheng Prusoff equation, Ki=IC50/(1+(L/Kd)), where L is the concentration of the radioligand used in the experiment and the Kd value is the dissociation constant for the radioligand (determined previously by saturation analysis).

Experiment [2] addresses T2, human mu opioid receptor (hMOR) (Homo sapiens, UniProt P35372).
T2 construct: expressed in transfected cells; host or cells: CHO cells
Description: Mu radioligand binding assay ([3H]diprenorphine, CHO cell membranes). On the procedure: as §1
as §2, with “The IC50 value (concentration at which 50% inhibition of specific binding occurs) was calculated using a logistic 4 parameter fit model of the concentration-response data.” left out

[3] abbreviates: radioligand binding, [3H]diprenorphine, read-out: hKOR Ki.
Where [4] appears, read: radioligand binding, [3H]diprenorphine, read-out: hMOR Ki.
Setting [5] is: Table 19, geometric mean of 2-6 determinations unless otherwise indicated (Example 3: >=7), read-out: hKOR binding assay Ki.
[6] abbreviates: Table 19, geometric mean of 2-6 determinations unless otherwise indicated (Example 3: >=7), read-out: hMOR binding assay Ki.
The mark [7] stands for this setting: Table 20, radioligand binding, read-out: hKOR binding assay Ki.
The mark [8] stands for this setting: Table 20, radioligand binding, read-out: hMOR binding assay Ki.

T2 sequence (P35372 whole entry): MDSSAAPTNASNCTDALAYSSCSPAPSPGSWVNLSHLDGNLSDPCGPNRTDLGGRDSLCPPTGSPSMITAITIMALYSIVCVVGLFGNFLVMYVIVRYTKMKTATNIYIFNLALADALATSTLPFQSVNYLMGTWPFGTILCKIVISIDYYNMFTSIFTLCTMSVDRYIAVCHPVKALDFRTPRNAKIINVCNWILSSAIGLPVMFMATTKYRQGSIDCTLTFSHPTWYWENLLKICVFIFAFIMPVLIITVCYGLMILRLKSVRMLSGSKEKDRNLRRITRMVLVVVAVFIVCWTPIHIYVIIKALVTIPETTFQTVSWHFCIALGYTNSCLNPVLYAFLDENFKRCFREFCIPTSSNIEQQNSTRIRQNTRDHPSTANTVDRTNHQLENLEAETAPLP
T1 sequence (P41145 whole entry): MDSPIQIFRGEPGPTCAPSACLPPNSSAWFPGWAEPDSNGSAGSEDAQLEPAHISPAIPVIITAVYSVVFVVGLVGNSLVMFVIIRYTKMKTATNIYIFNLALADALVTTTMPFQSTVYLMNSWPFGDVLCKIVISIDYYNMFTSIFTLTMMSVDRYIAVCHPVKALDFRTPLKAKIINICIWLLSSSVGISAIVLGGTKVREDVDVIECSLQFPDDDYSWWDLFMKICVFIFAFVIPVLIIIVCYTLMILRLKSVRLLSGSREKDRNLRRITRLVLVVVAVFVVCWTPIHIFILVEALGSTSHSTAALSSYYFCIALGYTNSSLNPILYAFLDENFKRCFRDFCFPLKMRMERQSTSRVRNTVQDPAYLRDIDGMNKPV

Broadly, the Ki is the dissociation constant of the complex between target and ligand, obtained from inhibition or displacement. With `COc1nn(C)cc1C1CCCCN1Cc1ccc(Oc2ccc(C(N)=O)cc2)cc1` (single isomer, unassigned) [enantiomer of Example 21, 4-(4-{[2-(3-methoxy-1-methyl-1H-pyrazol-4-yl)piperidin-1-yl]methyl}phenoxy)benzamide], the results for the Ki in experiment [1] (setting [3]) and in experiment [2] (setting [4]) were 15.5 nM and 135 nM, respectively.
Consider `COc1nn(C)cc1C1CC(F)CN1Cc1ccc(Oc2ccc(C(N)=O)cc2)cc1` (single isomer, unassigned) [Example 24, 4-(4-{[4-fluoro-2-(3-methoxy-1-methyl-1H-pyrazol-4-yl)pyrrolidin-1-yl]methyl}phenoxy)benzamide], for which the Ki in experiment [1] (setting [5]) is 2.21 nM; in experiment [2] (setting [6]), 252 nM.
Take `Cc1c(C2CCCN2Cc2ccc(Oc3ccc(C(N)=O)cc3F)cc2)cnn1C` (single isomer, unassigned) [Example 35, 4-(4-{[2-(1,5-dimethyl-1H-pyrazol-4-yl)pyrrolidin-1-yl]methyl}phenoxy)-3-fluorobenzamide]: the “selectivity for KOR over MOR (hMOR Ki divided by hKOR Ki)” value in experiment [1] is 2.5 fold. The inhibition constant Ki in experiment [1] (setting [5]) was 2.9 nM; in experiment [1] (setting [7]) it was 2.9 nM; in experiment [2] (setting [6]), 18.4 nM; in experiment [2] (setting [8]) it was 18.4 nM. Moreover, the “Selectivity hMOR/hKOR” value in experiment [1] was 6.4.
As for `COc1cc(C2CCCN2Cc2ccc(Oc3ccc(C(N)=O)cc3)cc2)n(C)n1` (single isomer, unassigned) [enantiomer of Example 46, 4-(4-{[2-(3-methoxy-1-methyl-1H-pyrazol-5-yl)pyrrolidin-1-yl]methyl}phenoxy)benzamide], the Ki in experiment [1] (setting [3]) came to 111 nM; in experiment [2] (setting [4]) it was 120 nM.
On to `COc1nn(C)cc1C1CCCN1Cc1ccc(Oc2ccc(C(N)=O)cc2)c(F)c1` (single isomer, unassigned) [enantiomer of Example 32, 4-(2-fluoro-4-{[2-(3-methoxy-1-methyl-1H-pyrazol-4-yl)pyrrolidin-1-yl]methyl}phenoxy)benzamide], for which the inhibition constant Ki in experiment [1] (setting [3]) came out at 0.629 nM; in experiment [2] (setting [4]), 13.7 nM.
For `Cc1nn(C)cc1C1CCCN1Cc1ccc(Oc2ccc(C(N)=O)cc2)c(F)c1` (single isomer, unassigned; (-)) [Example 3, (−)-4-(4-{[2-(1,3-Dimethyl-1H-pyrazol-4-yl)pyrrolidin-1-yl]methyl}-2-fluorophenoxy)benzamide], the inhibitory constant (Ki) in experiment [1] (setting [5]) was 0.461 nM; in experiment [2] (setting [6]) it was 16.9 nM.
As to `COc1nn(C)cc1C1CC(F)CN1Cc1ccc(Oc2ccc(C(N)=O)cc2)cc1` (stereo not drawn) [isomer of Example 24], the Ki in experiment [1] (setting [3]) stood at 36.3 nM; in experiment [2] (setting [4]), 1210 nM.
The corresponding values for `COc1nn(C)cc1C1COCCN1Cc1ccc(Oc2ccc(C(N)=O)cc2)cc1` (single isomer, unassigned) [enantiomer of Example 23, 4-(4-{[3-(3-methoxy-1-methyl-1H-pyrazol-4-yl)morpholin-4-yl]methyl}phenoxy)benzamide] are 223 nM and above 564 nM.
In the case of `COc1nn(C)cc1C1CC(C)CN1Cc1ccc(Oc2ccc(C(N)=O)cc2F)cc1` (single isomer, unassigned) [Example 30, 3-fluoro-4-(4-{[2-(3-methoxy-1-methyl-1H-pyrazol-4-yl)-4-methylpyrrolidin-1-yl]methyl}phenoxy)benzamide], the results for the Ki in experiment [1] (setting [5]) and in experiment [2] (setting [6]) were 0.417 nM and 9.59 nM, respectively.
In the case of `Cn1ccc([C@@H]2CCCN2Cc2ccc(Oc3ccc(C(N)=O)cc3F)cc2)n1` [Example 19, 3-fluoro-4-(4-{[(2S)-2-(1-methyl-1H-pyrazol-3-yl)pyrrolidin-1-yl]methyl}phenoxy)benzamide], the inhibition constant Ki in experiment [1] (setting [5]) was determined as 0.999 nM; in experiment [2] (setting [6]) it was 13.5 nM.
On to `Cc1nn(C)cc1C1CCCN1Cc1ccc(Oc2ccc(C(N)=O)cc2)c(F)c1` (single isomer, unassigned; (+)) [Example 2, (+)-4-(4-{[2-(1,3-Dimethyl-1H-pyrazol-4-yl)pyrrolidin-1-yl]methyl}-2-fluorophenoxy)benzamide], for which the figures for the Ki in experiment [1] (setting [5]) and in experiment [2] (setting [6]) were 3.95 nM and 27.8 nM, respectively.
In the case of `COc1nn(C)cc1C1COCCN1Cc1ccc(Oc2ccc(C(N)=O)cc2)c(F)c1` (single isomer, unassigned) [Example 22, 4-(2-fluoro-4-{[3-(3-methoxy-1-methyl-1H-pyrazol-4-yl)morpholin-4-yl]methyl}phenoxy)benzamide], the results for the inhibition constant (Ki) in experiment [1] (setting [5]) and in experiment [2] (setting [6]) were 4.52 nM and 95.1 nM, respectively.
The corresponding values for `Cc1nn(C)nc1C1CCCN1Cc1ccc(Oc2ccc(C(N)=O)cc2)c(F)c1` (single isomer, unassigned) [Example 39, 4-(4-{[2-(2,5-dimethyl-2H-1,2,3-triazol-4-yl)pyrrolidin-1-yl]methyl}-2-fluorophenoxy)benzamide] are 0.367 nM and 40.9 nM.
In the same order, the values of `COc1nn(C)cc1C1CCCN1Cc1ccc(Oc2ccc(C(N)=O)cc2F)cc1` (racemic) [Example 7, (+/−)-3-Fluoro-4-(4-{[2-(3-methoxy-1-methyl-1H-pyrazol-4-yl)pyrrolidin-1-yl]methyl}phenoxy)benzamide] are 5.71 nM and 196 nM.
With `Cc1nn(C)cc1C1CC(F)CN1Cc1ccc(Oc2ccc(C(N)=O)cc2)cc1` (single isomer, unassigned) [Example 26, 4-(4-{[2-(1,3-dimethyl-1H-pyrazol-4-yl)-4-fluoropyrrolidin-1-yl]methyl}phenoxy) benzamide], the inhibition constant (Ki) is 10.5 nM in experiment [1] (setting [5]) and above 526 nM in experiment [2] (setting [6]).
The corresponding values for `Cc1nn(C)cc1C1CC(F)CN1Cc1ccc(Oc2ccc(C(N)=O)cc2)cc1` (single isomer, unassigned) [Example 25, 4-(4-{[2-(1,3-dimethyl-1H-pyrazol-4-yl)-4-fluoropyrrolidin-1-yl]methyl}phenoxy) benzamide] are 2.7 nM and 391 nM.
With `Cc1c(C2CCCN2Cc2ccc(Oc3ccc(C(N)=O)cc3F)cc2)cnn1C` (single isomer, unassigned) [enantiomer of Example 35, 4-(4-{[2-(1,5-dimethyl-1H-pyrazol-4-yl)pyrrolidin-1-yl]methyl}phenoxy)-3-fluorobenzamide], the figures for the Ki in experiment [1] (setting [3]) and in experiment [2] (setting [4]) were 92.8 nM and 245 nM, respectively.
On to `Cc1nc([C@@H]2CCCN2Cc2ccc(Oc3ccc(C(N)=O)cc3)cc2)ns1` [Example 10, 4-(4-{[(2S)-2-(5-Methyl-1,2,4-thiadiazol-3-yl)pyrrolidin-1-yl]methyl}phenoxy)benzamide], for which the “KOR potency, in words” value in experiment [1] is “good potency”. Moreover, the “selectivity for KOR over MOR, in words” value in experiment [1] is “good potency and selectivity; also recorded: more selective than the phenyl examples, Comparators A and B”. The inhibition constant Ki in experiment [1] (setting [5]) was 4 nM; in experiment [1] (setting [7]), 4 nM; in experiment [2] (setting [6]) it was 218 nM; in experiment [2] (setting [8]), 218 nM. Further, the “Selectivity hMOR/hKOR” value in experiment [1] is given as 54.
For the compound `COc1n[nH]cc1C1CCCN1Cc1ccc(Oc2ccc(C(N)=O)cc2)cc1` (single isomer, unassigned; (-)) [Example 14, (−)-4-(4-{[2-(3-Methoxy-1H-pyrazol-4-yl)pyrrolidin-1-yl]methyl}phenoxy)benzamide], the results for the Ki in experiment [1] (setting [5]) and in experiment [2] (setting [6]) were 6.08 nM and 31.3 nM, respectively.
Regarding `COc1nn(C)cc1C1CCCN1Cc1ccc(Oc2ccc(C(N)=O)c(O)c2)cc1` (single isomer, unassigned) [enantiomer of Example 33, 2-hydroxy-4-(4-{[2-(3-methoxy-1-methyl-1H-pyrazol-4-yl)pyrrolidin-1-yl]methyl}phenoxy)benzamide], the Ki in experiment [1] (setting [3]) was 28.7 nM; in experiment [2] (setting [4]), 308 nM.
With `Cc1nsc(C2CCCN2Cc2ccc(Oc3ccc(C(N)=O)cc3)cc2)n1` (single isomer, unassigned) [Example 41, 4-(4-{[2-(3-methyl-1,2,4-thiadiazol-5-yl)pyrrolidin-1-yl]methyl}phenoxy)benzamide], the Ki in experiment [1] (setting [5]) is 85.8 nM; in experiment [1] (setting [3]) it was above 100 nM; in experiment [2] (setting [6]) it was 2730 nM; in experiment [2] (setting [8]) it was 2730 nM. Besides, the “Selectivity hMOR/hKOR” value in experiment [1] is listed as 32.
